According to patent publication US20260200905A1, “MICROBIOCIDAL TETRAHYDROISOQUINOLINE DERIVATIVES” (SYNGENTA CROP PROTECTION AG, priority 2022, published 2026):

Tests used:
[1] = tested on: Monographella nivalis (Microdochium nivale); assay: Monographella nivalis (Microdochium nivale) / liquid culture (foot rot cereals); type: cell-based; details: growth inhibition photometrically 4 to 5 days after application, read-out: control of Monographella nivalis
Experimental: (§1) Example B5: Monographella nivalis (Microdochium nivale)/Liquid Culture (Foot Rot Cereals) Conidia of the fungus from cryogenic storage are directly mixed into nutrient broth (PDB potato dextrose broth). After placing a (DMSO) solution of test compound into a microtiter plate (96-well format), the nutrient broth containing the fungal spores is added. The test plates are incubated at 24° C. and the inhibition of growth is determined photometrically 4 to 5 days after application.

[2] = tested on: Pyrenophora teres; assay: Pyrenophora teres / barley / leaf disc preventative (net blotch); type: in vivo; details: 200 ppm, compared to untreated control
Experimental: Example B9: Pyrenophora teres/Barley/Leaf Disc Preventative (Net Blotch) Barley leaf segments cv. Hasso are placed on agar in a multiwell plate (24-well format) and sprayed with the formulated test compound diluted in water. The leaf segments are inoculated with a spore suspension of the fungus 2 days after application. The inoculated leaf segments are incubated at 20° C. and 65% rh under a light regime of 12 h light/12 h darkness in a climate cabinet and the activity of a compound is assessed as disease control compared to untreated when an appropriate level of disease damage appears in untreated check leaf segments (5 to 7 days after application).

[3] = tested on: Mycosphaerella arachidis (Cercospora arachidicola); assay: Mycosphaerella arachidis (Cercospora arachidicola) / liquid culture (early leaf spot); type: cell-based; details: growth inhibition photometrically 4 to 5 days after application, read-out: control of Mycosphaerella arachidis
Experimental: as §1, with “B6: Mycosphaerella arachidis (Cercospora arachidicola)/Liquid” for “B5: Monographella nivalis (Microdochium nivale)/Liquid”, “(Early Leaf Spot)” for “(Foot Rot Cereals)”

[4] = tested on: Mycosphaerella graminicola (Septoria tritici); assay: Mycosphaerella graminicola (Septoria tritici) / liquid culture (Septoria blotch); type: cell-based; details: Zymoseptoria tritici, growth inhibition photometrically 4 to 5 days after application, read-out: control of Mycosphaerella graminicola
Experimental: as §1, with “B12: Mycosphaerella graminicola (Septoria tritici)/Liquid” for “B5: Monographella nivalis (Microdochium nivale)/Liquid”, “(Septoria Blotch)” for “(Foot Rot Cereals)”

[5] = tested on: Puccinia recondita f. sp. tritici; assay: Puccinia recondita f. sp. tritici / wheat / leaf disc curative (brown rust); type: in vivo; details: 200 ppm, applied 1 day after inoculation
Experimental: Example B7: Puccinia recondita f. Sp. Tritici/Wheat/Leaf Disc Curative (Brown Rust) Wheat leaf segments cv. Kanzler are placed on agar in multiwell plates (24-well format). The leaf segments are inoculated with a spore suspension of the fungus. Plates are stored in darkness at 19° C. and 75% rh. The formulated test compound diluted in water is applied 1 day after inoculation. The leaf segments are incubated at 19° C. and 75% rh under a light regime of 12 h light/12 h darkness in a climate cabinet and the activity of a compound is assessed as percent disease control compared to untreated when an appropriate level of disease damage appears in untreated check leaf segments (6 to 8 days after application).

[6] = tested on: Pythium ultimum; assay: Pythium ultimum / liquid culture (seedling damping off); type: cell-based; details: 20 ppm, growth inhibition photometrically 2 to 3 days after application
Experimental: Example B10: Pythium ultimum/Liquid Culture (Seedling Damping Off) Mycelia fragments and oospores of a newly grown liquid culture of the fungus are directly mixed into nutrient broth (PDB potato dextrose broth). After placing a (DMSO) solution of test compound into a microtiter plate (96-well format), the nutrient broth containing the fungal mycelia/spore mixture is added. The test plates are incubated at 24° C. and the inhibition of growth is determined photometrically 2 to 3 days after application.

[7] = tested on: Thanatephorus cucumeris (Rhizoctonia solani); assay: Thanatephorus cucumeris (Rhizoctonia solani) / liquid culture (foot rot, damping-off); type: cell-based; details: 20 ppm, growth inhibition photometrically 3 to 4 days after application
Experimental: Example B11: Thanatephorus cucumeris (Rhizoctonia solani)/Liquid Culture (Foot Rot, Damping-Off) Mycelia fragments of a newly grown liquid culture of the fungus are directly mixed into nutrient broth (PDB potato dextrose broth). After placing a (DMSO) solution of the test compounds into a microtiter plate (96-well format), the nutrient broth containing the fungal material is added. The test plates are incubated at 24° C. and the inhibition of growth is determined photometrically 3 to 4 days after application.

[8] = tested on: Phaeosphaeria nodorum (Septoria nodorum); assay: Phaeosphaeria nodorum (Septoria nodorum) / wheat / leaf disc preventative (glume blotch); type: in vivo; details: 200 ppm, compared to untreated control
Experimental: Example B4: Phaeosphaeria Nodorum (Septoria nodorum)/Wheat/Leaf Disc Preventative (Glume Blotch) Wheat leaf segments cv. Kanzler are placed on agar in a multiwell plate (24-well format) and sprayed with the formulated test compound diluted in water. The leaf disks are inoculated with a spore suspension of the fungus 2 days after application. The inoculated test leaf disks are incubated at 20° C. and 75% rh under a light regime of 12 h light/12 h darkness in a climate cabinet and the activity of a compound is assessed as percent disease control compared to untreated when an appropriate level of disease damage appears in untreated check leaf disks (5 to 7 days after application).

Structure (SMILES) | inhibition of growth at 20 ppm [1] | control of Pyrenophora teres [2] | inhibition of growth at 20 ppm [3] | inhibition of growth at 20 ppm [4] | control of Puccinia recondita f sp. tritici [5] | control of Pythium ultimum [6] | control of Thanatephorus cucumeris [7] | control of Phaeosphaeria nodorum [8]
O=C(c1cc(-c2ccc(F)cc2F)on1)N1Cc2c(F)cccc2C(c2cccnc2)C1 (centres unmarked) [Compound P-1, [5-(2,4-difluorophenyl)isoxazol-3-yl]-[8-fluoro-4-(3-pyridyl)-3,4-dihydro-1H-isoquinolin-2-yl]methanone] | ≥ 80% | at least 80% | ≥ 80% | ≥ 80% | – | – | – | –
O=C(c1cc(-c2ccc(F)cc2F)on1)N1Cc2ccccc2C(c2cncnc2)C1 (centres unmarked) [Compound P-4, [5-(2,4-difluorophenyl)isoxazol-3-yl]-(4-pyrimidin-5-yl-3,4-dihydro-1H-isoquinolin-2-yl)methanone] | ≥ 80% | – | ≥ 80% | ≥ 80% | – | – | – | –
O=C(c1cc(-c2ccc(F)cc2F)on1)N1Cc2ccccc2C(c2cccnc2)C1 (centres unmarked) [Compound P-5, [5-(2,4-difluorophenyl)isoxazol-3-yl]-[4-(3-pyridyl)-3,4-dihydro-1H-isoquinolin-2-yl]methanone] | ≥ 80% | – | ≥ 80% | ≥ 80% | – | – | – | –
O=C(c1cc(-c2ccc(F)cc2F)on1)N1Cc2cccc(F)c2C(c2cccnc2)C1 (centres unmarked) [Compound P-9, [5-(2,4-difluorophenyl)isoxazol-3-yl]-[5-fluoro-4-(3-pyridyl)-3,4-dihydro-1H-isoquinolin-2-yl]methanone] | ≥ 80% | – | ≥ 80% | ≥ 80% | – | – | – | –
Cc1c(C2CN(C(=O)c3cc(-c4ccc(F)cc4F)no3)Cc3ccccc32)cc(C#N)n1C (centres unmarked) [Compound P-19, 4-[2-[3-(2,4-difluorophenyl)isoxazole-5-carbonyl]-3,4-dihydro-1H-isoquinolin-4-yl]-1,5-dimethyl-pyrrole-2-carbonitrile] | – | – | – | ≥ 80% | at least 80% | – | – | –
O=C(c1cc(-c2ccc(F)cc2F)on1)N1Cc2ccccc2C(c2ccncc2)C1 (centres unmarked) [Compound P-2, [5-(2,4-difluorophenyl)isoxazol-3-yl]-4-[4-(4-pyridyl)-3,4-dihydro-1H-isoquinolin-2-yl]methanone] | ≥ 80% | – | – | ≥ 80% | – | at least 80% | at least 80% | –
O=C(c1cc(-c2ccc(F)cc2F)on1)N1Cc2ccccc2C(c2cnccn2)C1 (centres unmarked) [Compound P-8, [5-(2,4-difluorophenyl)isoxazol-3-yl]-(4-pyrazin-2-yl-3,4-dihydro-1H-isoquinolin-2-yl]methanone] | ≥ 80% | – | ≥ 80% | ≥ 80% | – | – | – | –
O=C(c1cc(-c2ccccc2)on1)N1Cc2ccccc2C(c2cccnc2)C1 (centres unmarked) [Compound P-6, (5-phenylisoxazol-3-yl)-[4-(3-pyridyl)-3,4-dihydro-1H-isoquinolin-2-yl]methanone] | ≥ 80% | – | ≥ 80% | ≥ 80% | – | – | – | –
Cn1nc(C2CN(C(=O)c3cc(-c4ccc(F)cc4F)on3)Cc3ccccc32)cc1Cl (centres unmarked) [Compound P-7, [4-(5-chloro-1-methyl-pyrazol-3-yl)-3,4-dihydro-1H-isoquinolin-2-yl]-[5-(2,4-difluorophenyl)isoxazol-3-yl]methanone] | ≥ 80% | – | ≥ 80% | ≥ 80% | – | – | – | at least 80%
